# How the values were obtained:
# [1] = tested on: doxorubicin (immobilized ligand, no protein target); test: Association constant for cyclodextrin binding to immobilized doxorubicin by SPR biosensor
# [2] = tested on: doxorubicin (immobilized ligand, no protein target); test: Association rate constant for cyclodextrin binding to immobilized doxorubicin by SPR biosensor
# [3] = tested on: doxorubicin (immobilized ligand, no protein target); test: Dissociation rate constant for cyclodextrin binding to immobilized doxorubicin by SPR biosensor
structure (smiles),measurement,setting,value
OCC1OC2OC3C(CO)OC(OC4C(CO)OC(OC5C(COCCCOc6ccc(O[C@@H]7O[C@@H](CO)[C@@H](O)[C@H](O)[C@@H]7O)cc6)OC(OC6C(CO)OC(OC7C(CO)OC(OC8C(CO)OC(OC1C(O)C2O)C(O)C8O)C(O)C7O)C(O)C6O)C(O)C5O)C(O)C4O)C(O)C3O (stereo partly drawn),Ka,[1],220 10E3·1/M
same,K ass,[2],4.6 10E3·1/M·1/s
same,K diss,[3],2.1 10E-2·1/s

# Source: ChEMBL document CHEMBL1144312, “Synthesis of mono-glucose-branched cyclodextrins with a high inclusion ability for doxorubicin and their efficient glycosylation using Mucor hiemalis endo-beta-N-acetylglucosaminidase” (Bioorg Med Chem Lett, 2005)
